Literature values as cited in patent publication US20210115493A1, “METHODS FOR DETERMINING A DRUG DOSING REGIMEN” (Clear Creek Bio, Inc., priority 2019, published 2021).

Experiments:
[1] = test system: mouse model of AML
[2] = test system: solid tumor malignancies; details: administered over a 5-day period followed by a 3-week gap, or once per week for three weeks followed by a 1-week gap

For Cc1c(-c2ccc(-c3ccccc3F)cc2)nc2ccc(F)cc2c1C(=O)O [brequinar, 6-fluoro-2-(2′-fluoro-1,1′biphenyl-4-yl)-3-methyl-4-quinoline carboxylic acid], the “adverse effects of daily administration of high doses” value [1] is listed as “weight loss, anemia, and thrombocytopenia” and the “efficacy in treatment of solid tumor malignancies” value [2] is listed as “ineffective”.
